The nature of series [1]: Microsomal stability, human liver microsomes (predicted hepatic clearance). As to conditions: predicted from in vitro microsomal stability data.
A further series has as its target GLP-1R (Homo sapiens, UniProt P43220). The series is described as follows: GLP-1R activation: cAMP increase in CHO cells stably expressing GLP-1R. In kind it is cell-based. As to conditions: cAMP increase, CHO cells stably expressing GLP-1R, 10 point dose response, 30 minutes incubation; read-out: EC50.

Where only a bound is given, the exact number is not on record here.

Sequence of GLP-1R (P43220 24-463): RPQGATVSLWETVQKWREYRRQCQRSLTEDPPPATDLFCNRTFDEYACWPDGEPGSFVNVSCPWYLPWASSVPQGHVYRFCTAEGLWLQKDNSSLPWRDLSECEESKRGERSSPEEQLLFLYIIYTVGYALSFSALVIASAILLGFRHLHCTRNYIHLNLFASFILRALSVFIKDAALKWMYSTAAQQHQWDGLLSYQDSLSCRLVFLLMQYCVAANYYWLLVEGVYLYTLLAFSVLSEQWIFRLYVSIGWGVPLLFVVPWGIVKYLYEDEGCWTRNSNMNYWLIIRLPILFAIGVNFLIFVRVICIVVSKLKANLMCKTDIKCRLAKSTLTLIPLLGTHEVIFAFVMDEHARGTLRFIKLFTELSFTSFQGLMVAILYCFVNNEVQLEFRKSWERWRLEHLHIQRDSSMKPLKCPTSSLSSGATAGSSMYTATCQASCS

By EC50 is commonly meant the concentration giving half of the maximal effect. As to `CCn1cncc1Cn1c(Cc2ccc(-c3ccc(F)c(OCc4ccc(Cl)cc4F)c3)cc2F)nc2ccc(C(=O)O)cc21` [Example 466, 2-((3′-((4-chloro-2-fluorobenzyl)oxy)-3,4′-difluoro-[1,1′-biphenyl]-4-yl)methyl)-1-((1-ethyl-1H-imidazol-5-yl)methyl)-1H-benzo[d]imidazole-6-carboxylic acid], the “Predicted Hepatic Clearance (Pred. Cl.)” value in series [1] was 3.83 mL/min/kg. The EC50 on GLP-1R came out at 1.87 nM.
In the same order, the values of `COCCn1c(Cc2cc(F)c(-c3cccc(OCc4ccc(C(F)F)cc4F)n3)cc2F)nc2c(F)cc(C(=O)O)cc21` [Example 635] are 1.83 mL/min/kg and 0.46 nM.
The like results for `O=C(O)c1ccc2nc(Cc3ccc(-c4cccc(OCc5ccc(Cl)cc5F)n4)cc3F)n(CC3(CF)CC3)c2c1` [Example 352, 2-(4-(6-((4-chloro-2-fluorobenzyl)oxy)pyridin-2-yl)-2-fluorobenzyl)-1-((1-(fluoromethyl)cyclopropyl)methyl)-1H-benzo[d]imidazole-6-carboxylic acid] were, in that order, <1.83 mL/min/kg and 1.45 nM.
The like results for `COCCn1c(Cc2cc(F)c(-c3cccc(OCc4ccc(Br)c5c4COC5)n3)cc2F)nc2ccc(C(=O)O)cc21` [Example 874] were, in that order, 1.83 mL/min/kg and 34.7 nM.
In the case of `CCn1cncc1Cn1c(Cc2ccc(-c3cccc(OCc4ccc(C#N)cc4F)n3)cc2F)nc2ccc(C(=O)O)cc21` [Example 525, 2-(4-(6-((4-cyano-2-fluorobenzyl)oxy)pyridin-2-yl)-2-fluorobenzyl)-1-((1-ethyl-1H-imidazol-5-yl)methyl)-1H-benzo[d]imidazole-6-carboxylic acid], the “Predicted Hepatic Clearance (Pred. Cl.)” value in series [1] was 2 mL/min/kg. The 50% effective concentration (EC50) at GLP-1R amounted to 0.6 nM.
The like results for `N#CCC1(Cn2c(Cc3ccc(-c4cccc(OCc5ccc(C#N)cc5F)n4)c(F)c3)nc3ccc(C(=O)O)cc32)CC1` [Example 530, 2-(4-(6-((4-cyano-2-fluorobenzyl)oxy)pyridin-2-yl)-3-fluorobenzyl)-1-((1-(cyanomethyl)cyclopropyl)methyl)-1H-benzo[d]imidazole-6-carboxylic acid] were, in that order, 10.5 mL/min/kg and 0.43 nM.
The like results for `COCCn1c(Cc2ccc(-c3cccc(OCc4ccc(C#N)cc4F)n3)cc2C#CC2CCOCC2)nc2ccc(C(=O)O)cc21` [Example 438, 2-(4-(6-((4-cyano-2-fluorobenzyl)oxy)pyridin-2-yl)-2-((tetrahydro-2H-pyran-4-yl)ethynyl)benzyl)-1-(2-methoxyethyl)-1H-benzo[d]imidazole-6-carboxylic] were, in that order, 18.7 mL/min/kg and 64.7 nM.
In the same order, the values of `COCCn1c(Cc2ccc(-c3cccc(OCc4ccc(C#N)cc4F)n3)cc2C#CC2CC2)nc2ccc(C(=O)O)cc21` [Example 257, 2-(4-(6-((4-cyano-2-fluorobenzyl)oxy)pyridin-2-yl)-2-(cyclopropylethynyl)benzyl)-1-(2-methoxyethyl)-1H-benzo[d]imidazole-6-carboxylic acid] are 5.83 mL/min/kg and 1.43 nM.
Turning to `COCC1(Cn2c(Cc3cc(F)c(-c4cccc(OCc5ccc(C#N)cc5F)n4)cc3F)nc3ccc(C(=O)O)cc32)CCC1` [Example 743], in series [1], the “Predicted Hepatic Clearance (Pred. Cl.)” value is 6.67 mL/min/kg. Besides, the EC50 on GLP-1R stood at 2.48 nM.
In the same order, the values of `N#Cc1ccc(COc2cccc(-c3cc(F)c(Cc4nc5ccc(C(=O)O)cc5n4CC4(CF)CC4)cc3F)n2)c(F)c1` [Example 429, 2-(4-(6-((4-cyano-2-fluorobenzyl)oxy)pyridin-2-yl)-2,5-difluorobenzyl)-1-((1-(fluoromethyl)cyclopropyl)methyl)-1H-benzo[d]imidazole-6-carboxylic acid] are 3.83 mL/min/kg and 0.61 nM.
With `O=C(O)c1ccc2nc(Cc3ccc(-c4cccc(OCc5ccc(C(F)F)cc5F)n4)cc3F)n(C[C@@H]3CCO3)c2c1` [Example 829], the “Predicted Hepatic Clearance (Pred. Cl.)” value in series [1] was 1.83 mL/min/kg. Also, the EC50 on GLP-1R amounted to 0.18 nM.
In the same order, the values of `COCCn1c(Cc2cc(F)c(-c3cccc(OCc4ccc(F)cc4Cl)n3)cc2F)nc2ccc(C(=O)O)cc21` [Example 818] are 6 mL/min/kg and 4.3 nM.
In the same order, the values of `CCn1nccc1Cn1c(Cc2ccc(-c3cccc(OCc4ccc(C#N)cc4F)n3)cc2F)nc2ccc(C(=O)O)cc21` [Example 524, 2-(4-(6-((4-cyano-2-fluorobenzyl)oxy)pyridin-2-yl)-2-fluorobenzyl)-1-((l-ethyl-1H-pyrazol-5-yl)methyl)-1H-benzo[d]imidazole-6-carboxylic acid] are 7.17 mL/min/kg and 66.5 nM.
The like results for `N#Cc1ccc(COc2nccc(-c3ccc(Cc4nc5ccc(C(=O)O)cc5n4CC4(CF)CC4)cc3F)n2)c(F)c1` [Example 350, 2-(4-(2-((4-cyano-2-fluorobenzyl)oxy)pyrimidin-4-yl)-3-fluorobenzyl)-1-((1-(fluoromethyl)cyclopropyl)methyl)-1H-benzo[d]imidazole-6-carboxylic acid] were, in that order, 6.33 mL/min/kg and 0.79 nM.
`N#CCC1(Cn2c(Cc3cc(F)c(-c4ccnc(OCc5ccc(C(F)F)cc5F)n4)cc3F)nc3ccc(C(=O)O)cc32)CC1` [Example 751]: the “Predicted Hepatic Clearance (Pred. Cl.)” value in series [1] is 7.17 mL/min/kg. Moreover, the EC50 on GLP-1R is 0.19 nM.
The like results for `COCCn1c(Cc2ccc(-c3cccc(OCc4cc(C(C)C)ccc4F)n3)cc2F)nc2ccc(C(=O)O)cc21` [Example 141, 2-(2-fluoro-4-(6-((2-fluoro-5-isopropylbenzyl)oxy)pyridin-2-yl)benzyl)-1-(2-methoxyethyl)-1H-benzo[d]imidazole-6-carboxylic acid] were, in that order, 5.5 mL/min/kg and 80.3 nM.
In the same order, the values of `N#Cc1ccc(COc2cccc(-c3cc(F)c(Cc4nc5ccc(C(=O)O)cc5n4CC4(F)COC4)cc3F)n2)c(F)c1` [Example 270, 2-(4-(6-((4-cyano-2-fluorobenzyl)oxy)pyridin-2-yl)-2,5-difluorobenzyl)-1-((3-fluorooxetan-3-yl)methyl)-1H-benzo[d]imidazole-6-carboxylic acid] are 4.5 mL/min/kg and 1.82 nM.
The like results for `COCCn1c(C2CCc3cc(-c4cccc(OCc5ccc(C#N)cc5F)n4)ccc32)nc2ccc(C(=O)O)cc21` (centres unmarked) [Example 36, 2-(5-(6-((4-cyano-2-fluorobenzyl)oxy)pyridin-2-yl)-2,3-dihydro-1H-inden-1-yl)-1-(2-methoxyethyl)-1H-benzo[d]imidazole-carboxylic acid] were, in that order, 4 mL/min/kg and 107 nM.
Take `N#CCC1(Cn2c(Cc3cc(F)c(-c4ccnc(OCc5ccc(C#N)cc5F)n4)cc3F)nc3c(F)cc(C(=O)O)cc32)CC1` [Example 268, 2-(4-(2-((4-cyano-2-fluorobenzyl)oxy)pyrimidin-4-yl)-2,5-difluorobenzyl)-1-((1-(cyanomethyl)cyclopropyl)methyl)-4-fluoro-1H-benzo[d]imidazole-6-carboxylic acid]: the “Predicted Hepatic Clearance (Pred. Cl.)” value in series [1] was 3.67 mL/min/kg. Moreover, at GLP-1R, the EC50 is 15.7 nM.
The like results for `COC(Cn1c(Cc2cc(F)c(-c3cccc(OCc4ccc(C#N)cc4F)n3)cc2F)nc2ccc(C(=O)O)cc21)C(F)(F)F` (centres unmarked) [Example 715] were, in that order, 2 mL/min/kg and 4.01 nM.
The like results for `COCCn1c(Cc2ccc(-c3cccc(OCc4ccc(C#N)cc4F)n3)cc2C2=CCN(C(=O)OC(C)(C)C)CC2)nc2ccc(C(=O)O)cc21` [Example 173, 2-(2-(1-(tert-butoxycarbonyl)-1,2,3,6-tetrahydropyridin-4-yl)-4-(6-((4-cyano-2-fluorobenzyl)oxy)pyridin-2-yl)benzyl)-1-(2-methoxyethyl)-1H-benzo[d]imidazole-6-carboxylic acid] were, in that order, 5 mL/min/kg and 774 nM.
The like results for `COCCn1c(Cc2ccc(-c3cccc(OCc4cccc5ccoc45)n3)cc2F)nc2ccc(C(=O)O)cc21` [Example 136, 2-(4-(6-(benzofuran-7-ylmethoxy)pyridin-2-yl)-2-fluorobenzyl)-1-(2-methoxyethyl)-1H-benzo[d]imidazole-6-carboxylic acid] were, in that order, 9 mL/min/kg and 24.5 nM.
